Source: patent US12642852B1, “Genomic engineering of pluripotent cells” (Fate Therapeutics, Inc., priority 2015, dated 2026)

Experiments:
[1] = tested on: puro-selected 293T cells with CMV-driven iCasp9 (AAVS1-G1.0) at AAVS1 locus; assay: In vitro inducible killing by AP1903, 7AAD staining and flow cytometry, 293T cells; format: cell-based; details: AP1903 10 nM or 120 nM, 24 hrs, DMSO control, n=2
Text: (§1) In vitro inducible killing of iCasp9-integrated iPSCs: The chemical inducer of dimerization (CID; AP1903) was purchased from Medchemexpress (Monmouth Junction, NJ). Twenty-four hours after CID exposure, the cells were harvested and stained with 7-amino actinomycin D (7-AAD) according to the manufacturer's instruction (BD Biosciences). The percentage of 7-AAD positive cells were quantified as dead cells by flow cytometry (Guava, EMD Millipore, Billerica, MA) and analyzed with flowjo software.
A donor construct encompassing CMV-driven iCasp9 (AAVS1-G1.0) was designed to target the AAVS1 locus (FIG. 1A) and to integrate the Casp9 suicide gene to 293T cells. The donor construct also comprise GFP and puromycin genes, the expression of which are driven by AAVS1 endogenous promoter once the targeted insertion takes place (FIG. 1A). 293T cells were transfected with ZFNs specific to AAVS1 locus and the donor construct AAVS1-G1.0. Three days after transfection, the puromycin selection was started and continued for 12 days. The puro-selected population was analyzed by flow cytometry for GFP expression, and a range of GFP expression levels were observed. It was observed that about 82% of the puro-selected cell population expressed GFP (FIG. 1B). […] The treated cells were then harvested and stained with 7AAD, which selectively stains membrane-compromised dying cells, and analyzed by flow cytometry. […]

[2] = tested on: iCasp9-integrated iPSCs; assay: In vitro inducible killing of iCasp9-integrated iPSCs by AP1903, 7AAD/GFP flow cytometry; format: cell-based, human; details: for cell death mediated by AP1903 (7AAD negative cells percentage): 24 hrs
Text: as §1
Similar to 293T cells, hiPSCs were transfected with ZFNs specific to AAVS1 locus and a donor construct encompassing CMV-driven iCasp9 (AAVS1-G1.0). The puromycin selection was started 3 days after transfection and continued for 16 days. The puro-resistant cells were analyzed by flow cytometry for GFP expression. Three populations based on the GFP intensity, GFP (neg), GFP (low) and GFP (hi) were sorted by flow cytometry (FIG. 1E). […] The treated cells were harvested and stained with 7AAD and analyzed by flow cytometry. […] However, in contrast to 293T cells with targeted Casp9 insertion at AAVS1 locus, cell death mediated by the AP1903 was not detected in all treatments in iPSCs with targeted Casp9 insertion at AAVS1 locus (FIG. 1F). […]
Because in the previous study puromycin selection under the AAVS1 promoter was robustly expressed to maintain viability and growth during selection, next a donor construct encompassing iCasp9 was designed to target the AAVS1 locus with endogenous AAVS1 promoter driving iCasp9 gene expression upon insertion (and GFP, and puromycin marker genes) (FIG. 2A). hiPSCs were transfected with ZFNs specific to AAVS1 locus and the donor construct encompassing iCasp9 under the control of AAVS1 endogenous promoter. […] The treated cells were harvested and stained with 7AAD and analyzed by flow cytometry. […] However, cell death mediated by the AP1903 was not detected in all treatments in iPSCs with targeted insertion of Casp9 at AAVS1 locus, and controlled Casp9 expression by endogenous AAVS1 promoter (FIG. 2C). […]

[3] = tested on: CAG-C38 iCasp9 iPSC clone with targeted insertion of sr39TK into H11 locus; assay: Dual suicide gene safe guard system killing in vitro (iCasp9 at AAVS1, sr39TK at H11); format: cell-based, human
Text: In addition to CAG-iCasp9 integrated into AAVS1 locus, CAG-sr39TK was integrated into H11 safe harbor in CAG-C38 clonal iPSC using targeted insertion method described herein.

Structure (SMILES) | cell death (7AAD negative cells percentage) [1] | cell death mediated by AP1903 (7AAD negative cells percentage) ([2]; hiPSCs with CMV-driven iCasp9, GFP (neg), GFP (low), GFP (hi) populations, 10 nM or 100 nM) | AP1903 cell death induction of GFP positive cells ([2]; hiPSCs with EF1α-driven iCasp9 at AAVS1, puromycin selected 20 days) | cell death mediated by AP1903 (7AAD negative cells percentage) ([2]; iPSCs with iCasp9 under endogenous AAVS1 promoter) | inducible killing ([3]; 10 nM AP1903 alone for two days) | inducible killing ([3]; 25 μg/mL GCV alone for nine days)
CC[C@H](C(=O)N1CCCC[C@H]1C(=O)O[C@H](CCc1ccc(OC)c(OC)c1)c1cccc(OCC(=O)NCCNC(=O)COc2cccc([C@@H](CCc3ccc(OC)c(OC)c3)OC(=O)[C@@H]3CCCCN3C(=O)[C@@H](CC)c3cc(OC)c(OC)c(OC)c3)c2)c1)c1cc(OC)c(OC)c(OC)c1 [AP1903] | Significant cell death was detected | not detected | although few, were responsive | not detected | inducible killing of most cells but rare cells remained | 
Nc1nc(O)c2ncn(COC(CO)CO)c2n1 [GCV, Ganciclovir] |  |  |  |  |  | expanded GCV-refractory cells
